From the NIST ThermoML archive (doi:10.1016/j.jct.2010.04.013)

Assay: mn = molality of the nth substance listed, in mol/kg
Details: 101 kPa, Liquid; for mass density: Vibrating tube method; for speed of sound: Pulse-echo method

[O-][Cl+3]([O-])([O-])[O-].[O-][Cl+3]([O-])([O-])[O-].[Sr+2] [strontium perchlorate] + CO
Details	mass density, 283.15 K [kg/m3]	mass density, 288.15 K [kg/m3]	mass density, 293.15 K [kg/m3]	mass density, 298.15 K [kg/m3]	mass density, 303.15 K [kg/m3]	mass density, 308.15 K [kg/m3]	mass density, 313.15 K [kg/m3]	speed of sound, 298.15 K [m/s]
m1 = 0.06323	814.327	809.615	804.898	800.168	795.42	790.66	785.866	1108
m1 = 0.07864	817.708	812.989	808.269	803.533	798.779	794.012	789.214	1109.7
m1 = 0.09378	821.019	816.297	811.567	806.826	802.074	797.297	792.492	1111.1
m1 = 0.1093	824.484	819.755	815.021	810.274	805.504	800.727	795.92	1112.6
m1 = 0.1234	827.609	822.874	818.133	813.381	808.608	803.819	799.011	1114
m1 = 0.154	834.44	829.692	824.939	820.172	815.389	810.594	805.771	1116.9
m1 = 0.1834	841.064	836.304	831.54	826.763	821.965	817.158	812.326	1120
m1 = 0.2113	847.498	842.723	837.945	833.161	828.36	823.539	818.693	1122.7
m1 = 0.2388	853.778	848.993	844.206	839.406	834.589	829.75	824.9	1125.5
m1 = 0.266	860.252	855.456	850.654	845.848	841.026	836.183	831.317	1128.2
m1 = 0.2946	867.084	862.275	857.464	852.642	847.803	842.939	838.069	1131.4

[Ba+2].[O-][Cl+3]([O-])([O-])[O-].[O-][Cl+3]([O-])([O-])[O-] [barium perchlorate] + CO
Details	mass density, 283.15 K [kg/m3]	mass density, 288.15 K [kg/m3]	mass density, 293.15 K [kg/m3]	mass density, 298.15 K [kg/m3]	mass density, 303.15 K [kg/m3]	mass density, 308.15 K [kg/m3]	mass density, 313.15 K [kg/m3]	speed of sound, 298.15 K [m/s]
m1 = 0.04405	811.658	806.964	802.257	797.534	792.793	788.031	783.24	1104.8
m1 = 0.05789	815.181	810.483	805.768	801.038	796.29	791.514	786.709	1105.8
m1 = 0.07152	818.62	813.919	809.196	804.461	799.707	794.928	790.115	1106.8
m1 = 0.08565	822.272	817.565	812.834	808.092	803.33	798.541	793.738	–
m1 = 0.09942	825.796	821.081	816.346	811.597	806.83	802.029	797.22	1108.7
m1 = 0.1123	829.125	824.405	819.663	814.91	810.139	805.341	800.51	1109.7
m1 = 0.1401	836.397	831.665	826.908	822.143	817.357	812.546	807.7	1111.7
m1 = 0.1665	843.399	838.652	833.885	829.105	824.3	819.488	814.642	1113.2
m1 = 0.1922	850.26	845.49	840.721	835.928	831.119	826.278	821.422	1115.2
m1 = 0.2169	856.95	852.176	847.385	842.583	837.763	832.919	828.046	1116.9
m1 = 0.2417	863.79	859.009	854.206	849.387	844.546	839.692	834.813	1118.6

CO [methanol] + O=S(=O)([O-])C(F)(F)F.O=S(=O)([O-])C(F)(F)F.[Be+2]
m2 = 0
Details	mass density [kg/m3]
283.15 K	800.552
288.15 K	795.874
293.15 K	791.179
298.15 K	786.469
303.15 K	781.742
308.15 K	776.993
313.15 K	772.216

O=S(=O)([O-])C(F)(F)F.O=S(=O)([O-])C(F)(F)F.[Be+2] [beryllium 1,1,1-trifluoromethanesulfonate] + CO
Details	mass density, 283.15 K [kg/m3]	mass density, 288.15 K [kg/m3]	mass density, 293.15 K [kg/m3]	mass density, 298.15 K [kg/m3]	mass density, 303.15 K [kg/m3]	mass density, 308.15 K [kg/m3]	mass density, 313.15 K [kg/m3]	speed of sound, 298.15 K [m/s]
m1 = 0.05456	809.901	805.251	800.58	795.899	791.207	786.489	781.742	1105.4
m1 = 0.06745	812.098	807.453	802.786	798.111	793.424	788.711	783.973	1106.2
m1 = 0.08472	815.041	810.402	805.745	801.074	796.384	791.686	786.956	1107.2
m1 = 0.1077	818.969	814.336	809.691	805.032	800.359	795.664	790.942	1108.5
m1 = 0.1249	821.918	817.294	812.65	807.996	803.329	798.644	793.931	1109.5
m1 = 0.1421	824.885	820.267	815.629	810.983	806.316	801.638	796.936	1110.3
m1 = 0.1594	827.866	823.252	818.621	813.979	809.325	804.652	799.953	1111.1
m1 = 0.177	830.948	826.34	821.715	817.077	812.425	807.764	803.073	1111.9

O=S(=O)([O-])C(F)(F)F.[Na+] [sodium trifluoromethanesulfonate] + CO
Details	mass density, 283.15 K [kg/m3]	mass density, 288.15 K [kg/m3]	mass density, 293.15 K [kg/m3]	mass density, 298.15 K [kg/m3]	mass density, 303.15 K [kg/m3]	mass density, 308.15 K [kg/m3]	mass density, 313.15 K [kg/m3]	speed of sound, 298.15 K [m/s]
m1 = 0.04581	805.004	800.315	795.62	790.91	786.191	781.448	776.675	1102.3
m1 = 0.05858	806.247	801.557	796.863	792.154	787.428	782.688	777.918	1102.5
m1 = 0.07409	807.746	803.057	798.363	793.657	788.931	784.175	779.409	1103
m1 = 0.08825	809.117	804.427	799.733	795.022	790.305	785.561	780.79	1103.2
m1 = 0.1028	810.527	805.836	801.14	796.431	791.701	786.964	782.194	1103.4
m1 = 0.1172	811.93	807.238	802.543	797.833	793.105	788.352	783.59	1103.6
m1 = 0.1463	814.771	810.077	805.377	800.668	795.947	791.201	786.428	1104
m1 = 0.1743	817.509	812.812	808.112	803.401	798.671	793.913	789.143	1104.6
m1 = 0.2027	820.305	815.606	810.904	806.19	801.46	796.713	791.938	1105
m1 = 0.2301	823.038	818.338	813.634	808.917	804.185	799.436	794.66	1105.2
m1 = 0.2574	825.732	821.028	816.321	811.601	806.867	802.106	797.321	1105.4
m1 = 0.2861	828.58	823.872	819.161	814.439	809.7	804.938	800.15	1105.6

C[S+](C)[O-] [dimethyl sulfoxide] + [Mg+2].[O-][Cl+3]([O-])([O-])[O-].[O-][Cl+3]([O-])([O-])[O-]
m2 = 0
Details	mass density [kg/m3]
293.15 K	1100.21
298.15 K	1095.18
303.15 K	1090.16
313.15 K	1080.12
323.15 K	1070.08
333.15 K	1060.02

O=S(=O)([O-])C(F)(F)F.O=S(=O)([O-])C(F)(F)F.[Be+2] [beryllium 1,1,1-trifluoromethanesulfonate] + C[S+](C)[O-]
Details	mass density, 293.15 K [kg/m3]	mass density, 298.15 K [kg/m3]	mass density, 303.15 K [kg/m3]	mass density, 313.15 K [kg/m3]	mass density, 323.15 K [kg/m3]	mass density, 333.15 K [kg/m3]	speed of sound, 298.15 K [m/s]
m1 = 0.01855	1103.22	1098.21	1093.19	1083.18	1073.16	1063.14	–
m1 = 0.0259	1104.42	1099.41	1094.4	1084.39	1074.38	1064.37	1484.1
m1 = 0.03349	1105.65	1100.64	1095.64	1085.64	1075.64	1065.64	1484.1
m1 = 0.0433	1107.25	1102.25	1097.25	1087.27	1077.27	1067.29	1484.1
m1 = 0.0531	1108.84	1103.84	1098.85	1088.88	1078.9	1068.92	1484.1
m1 = 0.06815	1111.3	1106.31	1101.33	1091.37	1081.41	1071.46	1484.1
m1 = 0.08651	1114.3	1109.32	1104.35	1094.41	1084.48	1074.55	1484.1
m1 = 0.1051	1117.36	1112.4	1107.44	1097.52	1087.61	1077.69	1484.1
m1 = 0.1237	1120.43	1115.48	1110.52	1100.63	1090.75	1080.86	1484.1
m1 = 0.1446	1123.89	1118.95	1114.01	1104.14	1094.27	1084.41	1484.1
m1 = 0.1621	1126.82	1121.88	1116.95	1107.09	1097.24	1087.39	1484.1
